Experimental data: PubChem BioAssay (NCI)
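Following 48 hours of exposure in 96-well plates, responses at five concentrations were used to interpolate endpoints linearly. Abbreviation: GI50, concentration required for 50% inhibition of growth. TGI is the concentration that stops growth completely.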

Key:
Assay in all cases: DTP human tumour cell line panel, 48 h
NCI-H226 lung = test system: NCI-H226 lung
NCI-H460 lung = test system: NCI-H460 lung
NCI-H522 lung = test system: NCI-H522 lung
NCI/ADR-RES ovarian = test system: NCI/ADR-RES ovarian
OVCAR-3 ovarian = test system: OVCAR-3 ovarian
OVCAR-4 ovarian = test system: OVCAR-4 ovarian
OVCAR-5 ovarian = test system: OVCAR-5 ovarian
OVCAR-8 ovarian = test system: OVCAR-8 ovarian
PC-3 prostate = test system: PC-3 prostate
RPMI-8226 leukemia = test system: RPMI-8226 leukemia
RXF 393 renal = test system: RXF 393 renal
SF-268 CNS = test system: SF-268 CNS
SF-295 CNS = test system: SF-295 CNS
SF-539 CNS = test system: SF-539 CNS
SK-MEL-2 melanoma = test system: SK-MEL-2 melanoma
SK-MEL-28 melanoma = test system: SK-MEL-28 melanoma
SK-MEL-5 melanoma = test system: SK-MEL-5 melanoma
SK-OV-3 ovarian = test system: SK-OV-3 ovarian
SN12C renal = test system: SN12C renal
SNB-19 CNS = test system: SNB-19 CNS
SNB-75 CNS = test system: SNB-75 CNS
SR leukemia = test system: SR leukemia
SW-620 colon = test system: SW-620 colon
TK-10 renal = test system: TK-10 renal
U251 CNS = test system: U251 CNS
UACC-257 melanoma = test system: UACC-257 melanoma
UO-31 renal = test system: UO-31 renal

Cc1ccc2c(n1)C(=O)C(Cl)=C(Nc1cccc(C)c1C)C2=O
TGI (NCI-H226 lung): 4390 nM | GI50 (NCI-H460 lung): 2250 nM | TGI (NCI-H460 lung): 5620 nM | GI50 (NCI-H522 lung): 1960 nM | TGI (NCI-H522 lung): 4580 nM | GI50 (NCI/ADR-RES ovarian): 1920 nM | TGI (NCI/ADR-RES ovarian): 6600 nM | GI50 (OVCAR-3 ovarian): 372 nM | TGI (OVCAR-3 ovarian): 1400 nM | GI50 (OVCAR-4 ovarian): 1140 nM | TGI (OVCAR-4 ovarian): 2420 nM | GI50 (OVCAR-5 ovarian): 2010 nM | TGI (OVCAR-5 ovarian): 3930 nM | GI50 (OVCAR-8 ovarian): 2020 nM | TGI (OVCAR-8 ovarian): 7410 nM | GI50 (PC-3 prostate): 1430 nM | TGI (PC-3 prostate): 3480 nM | GI50 (RPMI-8226 leukemia): 1350 nM | TGI (RPMI-8226 leukemia): 4120 nM | GI50 (RXF 393 renal): 1520 nM | TGI (RXF 393 renal): 2880 nM | GI50 (SF-268 CNS): 1610 nM | TGI (SF-268 CNS): 3480 nM | GI50 (SF-295 CNS): 1840 nM | TGI (SF-295 CNS): 3390 nM | GI50 (SF-539 CNS): 1670 nM | TGI (SF-539 CNS): 3160 nM | GI50 (SK-MEL-2 melanoma): 1910 nM | TGI (SK-MEL-2 melanoma): 3840 nM | GI50 (SK-MEL-28 melanoma): 1930 nM | TGI (SK-MEL-28 melanoma): 3700 nM | GI50 (SK-MEL-5 melanoma): 1620 nM | TGI (SK-MEL-5 melanoma): 3020 nM | GI50 (SK-OV-3 ovarian): 1590 nM | TGI (SK-OV-3 ovarian): 3640 nM | GI50 (SN12C renal): 1670 nM | TGI (SN12C renal): 4350 nM | GI50 (SNB-19 CNS): 1920 nM | TGI (SNB-19 CNS): 5080 nM | GI50 (SNB-75 CNS): 1460 nM | TGI (SNB-75 CNS): 2920 nM | GI50 (SR leukemia): 600 nM | TGI (SR leukemia): 3210 nM | GI50 (SW-620 colon): 2060 nM | TGI (SW-620 colon): 4820 nM | GI50 (TK-10 renal): 2470 nM | TGI (TK-10 renal): 4200 nM | GI50 (U251 CNS): 1550 nM | TGI (U251 CNS): 3080 nM | GI50 (UACC-257 melanoma): 1440 nM | TGI (UACC-257 melanoma): 2800 nM | GI50 (UO-31 renal): 1460 nM | TGI (UO-31 renal): 2950 nM
